Experimental data reported in patent US20030212078A1, “Topical administration of pharmacological compositions for non-systemic treatment of pruritus” (priority 2003, published 2003).

Tests used:
[1] = system: patients with pruritus (neurodermatitis; insect bite); assay: Small, uncontrolled and unblinded trial of hydroxyzine*HCl skin cream in two patients with pruritus; type: in vivo, human; settings: skin cream comprising 5% (by weight) hydroxyzine*HCl, both patients
Method: In a small, uncontrolled and unblinded trial, two patients with pruritus were treated with a skin cream comprising 5% (by weight) hydroxyzine*HCl. The first patient was diagnosed with neurodermatitis (a non-allergic condition), while the second patient was diagnosed with an insect bite (an allergic condition).

[2] = system: patients with pruritus associated with atopic dermatitis; settings: human, in vivo
Method: In another small uncontrolled and unblinded trial, one group of patients with pruritus associated with atopic dermatitis was treated with a spray (aqueous buffered solution of 40 mg/ml hydroxyzine hydrochloride), which was topically applied to an area of the patients' skin affected by atopic dermatitis. The patients were instructed to spray about 0.1 ml (three pump actions of the manually operated spray bottle) of the composition onto an area of about 10 cm^2 affected by symptomatic itching for up to 5 applications per day for a period of two weeks. A second group of group of patients with pruritus associated with atopic dermatitis was treated with a cream (W/O emulsion containing 2% (wt) hydroxyzine hydrochloride), which was topically applied to an area of the patients' skin affected by atopic dermatitis. The patients were instructed to massage a small portion (about 0.2 gram) into an area of about 10 cm^2 affected by symptomatic itching for up to 5 applications per day for a period of two weeks.

SMILES | time to positive result (significant reduction in pruritus) [1] | positive result (reduction in pruritus) ([1]; two patients (neurodermatitis, insect bite)) | patients who experienced drowsiness ([2]; 2 weeks) | patients who experienced transient tachycardia ([2]; 2 weeks) | patients who experienced weight gain of at least 4% ([2]; 2 months)
Cl.Cl.OCCOCCN1CCN(C(c2ccccc2)c2ccc(Cl)cc2)CC1 (centres unmarked) [hydroxyzine, 1-(p-chlorobenzhydryl) 4-[2-(2-hydroxyethoxy)-ethyl] piperazine dihydrochloride] | 60 s | significant reduction in pruritus | 13/15 | 4/15 | –
CN1CCC(=C2c3ccccc3C=Cc3ccccc32)CC1 [cyproheptadine] | – | – | – | – | 5/15
